Source: ChEMBL document CHEMBL5532665 (J Med Chem, 2024)
The source made the active and inactive calls. The rule behind the calls is not given here.

Key:
[1] = target: T1, Mu-type opioid receptor (Homo sapiens, UniProt P35372); test: Agonist activity at human MOR expressed in CHO-K1 cells co-expressing G-alpha15 by calcium mobilization assay relative to control; format: functional, cell-based; details: filed as agonist
[2] = target: T2, Kappa-type opioid receptor (Homo sapiens, UniProt P41145); test: Agonist activity at human KOR expressed in CHO-K1 cells co-expressing G-alpha15 by calcium mobilization assay relative to control; format: functional, cell-based; details: filed as agonist
[3] = target: T3, Delta-type opioid receptor (Homo sapiens, UniProt P41143); test: Agonist activity at human DOR expressed in CHO-K1 cells co-expressing G-alpha15 by calcium mobilization assay relative to control; format: functional, cell-based; details: filed as agonist
[4] = test system: Mus musculus; test: Antinociceptive activity in Kunming mouse model at 13.9 nmol/kg, sc in presence of beta-FNA by tail-flick test; format: functional, organism-based
[5] = test system: Mus musculus; test: Antinociceptive activity in Kunming mouse model at 13.9 nmol/kg, sc in presence of nor-BNI by tail-flick test; format: functional, organism-based
[6] = test system: Mus musculus; test: Antinociceptive activity in Kunming mouse model at 13.9 nmol/kg, sc in presence of NTI by tail-flick test; format: functional, organism-based
[7] = test system: Mus musculus; test: Antinociceptive activity in Kunming mouse model at 13.9 nmol/kg, sc pretreated with NALM subcutaneously followed by compound administration by tail-flick test; format: functional, organism-based
[8] = test system: Mus musculus; test: Antinociceptive activity in Kunming mouse model at 13.9 nmol/kg, sc pretreated with NALM intracerebroventricularly followed by compound administration by tail-flick test; format: functional, organism-based
[9] = test system: Mus musculus; test: Antinociceptive activity in Kunming mouse model assessed as increase in analgesic effect at 0.14 to 13.9 nmol/kg, sc measured for 180 to 360 mins by tail-flick test; format: functional, organism-based; details: dose 0.14-13.9 nmol/kg, time 180-360 min
[10] = test system: Mus musculus; test: Antinociception activity in Kunming mouse model assessed as analgesic effect at 13.9 nmol/kg, sc administered daily measured for 8 days by tail-flick test; format: functional, organism-based; details: time 8.0 day
[11] = test system: Mus musculus; test: Rewarding affect in Kunming mouse model at 139 nmol/kg, sc pre-exposed to place conditioning for 3 days followed by compound administration and further re-exposed to place conditioning measured on day 5 by unbiased CPP method; format: functional, organism-based; details: time 2.0 day
[12] = test system: Mus musculus; test: Induction of physical dependence in Kunming mouse model assessed as jumping behavior at 2.5 to 125 nmol/kg, sc administered as 7 escalating doses with 8 hr-intervals in-between followed by Nal administration post-2 hrs of last compound dose and further measured for 30 mins by withdrawal assay; format: functional, organism-based; details: dose 2.5-125 nmol/kg, time 50.5 hrs
[13] = test system: Mus musculus; test: Antinociceptive activity in Kunming mouse model assessed as latency of tail withdrawal at 1362 nmol/kg, sc measured for 10 mins by tail-flick test relative to control; format: functional
[14] = test system: Mus musculus; test: Antinociceptive activity in Kunming mouse model assessed as latency of tail withdrawal at 1362 nmol/kg, sc measured for 30 mins by tail-flick test relative to control; format: functional; details: 0.5 h
[15] = test system: Mus musculus; test: Antinociceptive activity in Kunming mouse model assessed as latency of tail withdrawal at 1362 nmol/kg, sc measured for 60 mins by tail-flick test relative to control; format: functional; details: 1 h
[16] = test system: Mus musculus; test: Antinociceptive activity in Kunming mouse model assessed as latency of tail withdrawal at 1362 nmol/kg, sc measured for 120 mins by tail-flick test relative to control; format: functional; details: 2 h
[17] = target: T1, Mu-type opioid receptor; test: Agonist activity at human MOR expressed in CHO-K1 cells co-expressing G-alpha15 by calcium mobilization assay; format: functional, cell-based; details: cho-k1
[18] = target: T2, Kappa-type opioid receptor; test: Agonist activity at human KOR expressed in CHO-K1 cells co-expressing G-alpha15 by calcium mobilization assay; format: functional, cell-based; details: cho-k1
[19] = target: T3, Delta-type opioid receptor; test: Agonist activity at human DOR expressed in CHO-K1 cells co-expressing G-alpha15 by calcium mobilization assay; format: functional, cell-based; details: cho-k1
[20] = test system: Mus musculus; test: Antinociceptive activity in Kunming mouse model assessed as latency of tail withdrawal at 13.9 nmol/kg, sc measured for 10 mins by tail-flick test relative to control; format: functional
[21] = test system: Mus musculus; test: Antinociceptive activity in Kunming mouse model assessed as latency of tail withdrawal at 13.9 nmol/kg, sc measured for 30 mins by tail-flick test relative to control; format: functional; details: 0.5 h
[22] = test system: Mus musculus; test: Antinociceptive activity in Kunming mouse model assessed as latency of tail withdrawal at 13.9 nmol/kg, sc measured for 60 mins by tail-flick test relative to control; format: functional; details: 1 h
[23] = test system: Mus musculus; test: Antinociceptive activity in Kunming mouse model assessed as latency of tail withdrawal at 13.9 nmol/kg, sc measured for 120 mins by tail-flick test relative to control; format: functional; details: 2 h
[24] = Stability in mouse plasma assessed as half life at 0.01 mol/L measured for 72 hrs by RP-HPLC analysis; format: ADME, cell-free
[25] = test system: Mus musculus; test: Antinociceptive activity in Kunming mouse model administered subcutaneously by tail-flick test; format: functional; details: route sc
[26] = test system: Mus musculus; test: Antinociceptive activity in Kunming mouse model administered subcutaneously measured for 5 to 15 mins by acetic acid-induced writhing test; format: functional; details: route sc, time 5-15 min
[27] = test system: Mus musculus; test: Induction of physical dependence in Kunming mouse model assessed as jumping behavior at 5.5 to 275 nmol/kg, sc administered as 7 escalating doses with 8 hr-intervals in-between followed by Nal administration post-2 hrs of last compound dose and further measured for 30 mins by withdrawal assay; format: functional, organism-based; details: dose 5.5-275 nmol/kg, time 50.5 hrs
[28] = test system: Mus musculus; test: Antinociceptive activity in Kunming mouse model at 1416 nmol/kg, sc in presence of beta-FNA by tail-flick test; format: functional, organism-based
[29] = test system: Mus musculus; test: Antinociceptive activity in Kunming mouse model at 1416 nmol/kg, sc in presence of nor-BNI by tail-flick test; format: functional, organism-based
[30] = test system: Mus musculus; test: Antinociceptive activity in Kunming mouse model at 1416 nmol/kg, sc in presence of NTI by tail-flick test; format: functional, organism-based
[31] = test system: Mus musculus; test: Antinociceptive activity in Kunming mouse model at 1416 nmol/kg, sc pretreated with NALM subcutaneously followed by compound administration by tail-flick test; format: functional, organism-based
[32] = test system: Mus musculus; test: Antinociceptive activity in Kunming mouse model at 1416 nmol/kg, sc pretreated with NALM intracerebroventricularly followed by compound administration by tail-flick test; format: functional, organism-based

T2 sequence (P41145 whole entry): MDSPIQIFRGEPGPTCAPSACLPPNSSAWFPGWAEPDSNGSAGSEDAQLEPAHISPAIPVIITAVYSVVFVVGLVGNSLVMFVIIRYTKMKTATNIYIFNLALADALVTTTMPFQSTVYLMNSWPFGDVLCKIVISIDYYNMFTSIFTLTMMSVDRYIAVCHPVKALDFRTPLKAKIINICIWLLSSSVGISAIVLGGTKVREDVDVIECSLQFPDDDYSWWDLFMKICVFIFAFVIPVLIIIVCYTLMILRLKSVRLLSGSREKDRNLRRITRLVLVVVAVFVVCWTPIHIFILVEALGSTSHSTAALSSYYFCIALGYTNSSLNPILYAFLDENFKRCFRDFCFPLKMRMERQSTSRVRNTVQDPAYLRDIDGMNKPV
T1 sequence (P35372 whole entry): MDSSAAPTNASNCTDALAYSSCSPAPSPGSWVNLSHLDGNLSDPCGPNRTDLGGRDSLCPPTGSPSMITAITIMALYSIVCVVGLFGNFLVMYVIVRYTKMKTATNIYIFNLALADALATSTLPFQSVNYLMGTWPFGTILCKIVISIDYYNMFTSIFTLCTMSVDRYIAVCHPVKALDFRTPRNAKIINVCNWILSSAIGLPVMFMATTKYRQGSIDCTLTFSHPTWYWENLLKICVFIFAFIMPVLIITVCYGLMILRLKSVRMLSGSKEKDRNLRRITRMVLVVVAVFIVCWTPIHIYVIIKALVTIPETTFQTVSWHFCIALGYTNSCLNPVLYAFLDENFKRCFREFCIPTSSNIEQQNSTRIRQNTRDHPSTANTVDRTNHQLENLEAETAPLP
T3 sequence (P41143 whole entry): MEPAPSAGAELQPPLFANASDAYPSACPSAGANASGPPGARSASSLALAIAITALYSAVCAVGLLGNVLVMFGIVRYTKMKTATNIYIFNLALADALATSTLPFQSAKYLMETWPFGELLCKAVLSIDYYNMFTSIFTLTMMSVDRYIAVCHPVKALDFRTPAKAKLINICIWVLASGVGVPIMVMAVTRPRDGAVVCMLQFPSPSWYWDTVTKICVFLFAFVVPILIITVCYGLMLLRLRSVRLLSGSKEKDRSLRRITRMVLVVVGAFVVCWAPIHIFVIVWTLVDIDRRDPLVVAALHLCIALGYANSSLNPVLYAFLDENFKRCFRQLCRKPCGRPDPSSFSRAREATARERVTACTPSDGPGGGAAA

Row | SMILES | Emax [1] [%] | Emax [2] [%] | Emax [3] [%] | Activity [4] | Activity [5] | Activity [6] | Activity [7] | Activity [8] | Activity [9] | Activity [11] | EC50 [17] [nM] | MPE [20] [%] | MPE [21] [%] | MPE [22] [%] | MPE [23] [%] | half-life at 0.01 mol/L [24] [days] | further results
1 | CN1C(=O)CNC(=O)[C@H](NC(=O)[C@@H](N)Cc2ccc(O)cc2)CCCCNC(=O)C[C@H](C(=O)N2CCC[C@H]2C(N)=O)NC(=O)[C@@H]1Cc1ccccc1 | 90.7 | 93.7 | 121 | inactive | inactive | Active | inactive | Active | Active | inactive |  |  |  |  |  |  | Activity [10]: Active; Activity [12]: inactive
2 | Cc1cc(O)cc(C)c1C[C@H](N)C(=O)N[C@@H]1CCCCNC(=O)C[C@@H](C(=O)N2CCC[C@@H]2C(N)=O)NC(=O)[C@H](Cc2ccccc2)NC(=O)CNC1=O |  |  |  |  |  |  |  |  |  |  |  |  |  |  |  |  | MPE [13]: 75%; MPE [14]: 90.5%; MPE [15]: 73.4%; MPE [16]: 44.5%
3 | NC(=O)[C@@H]1CCCCN1C(=O)[C@H]1CC(=O)NCCCC[C@@H](NC(=O)[C@@H](N)Cc2ccc(O)cc2)C(=O)NCC(=O)N[C@@H](Cc2ccccc2)C(=O)N1 | 107 | 99.5 | 101 | inactive | inactive | Active | Active | inactive | Active | inactive | 0.9 | 73.1 | 91.2 | 86.9 | 56.6 | 18.5 | EC50 [18]: 214 nM; EC50 [19]: 0.2 nM; ED50 [25]: 0.0007 µmol/kg; ED50 [26]: 0.0055 µmol/kg; Activity [27]: inactive
4 | C[C@H]1NC(=O)[C@H](NC(=O)[C@@H](N)Cc2ccc(O)cc2)CCCCNC(=O)C[C@H](C(=O)N2CCC[C@H]2C(N)=O)NC(=O)[C@H](Cc2ccccc2)NC1=O | 115 |  |  |  |  |  |  |  |  |  | 62.4 | 63.6 | 91.4 | 88.4 | 44.4 | > 3 | 
5 | NC(=O)[C@@H]1CCCN1C(=O)[C@H]1CC(=O)NCCCC[C@@H](NC(=O)[C@@H](N)Cc2ccc(O)cc2)C(=O)NCC(=O)N[C@@H](Cc2ccccc2)C(=O)N1 | 109 | 103 | 107 |  |  |  |  |  |  |  |  |  |  |  |  |  | Activity [28]: inactive; Activity [29]: inactive; Activity [30]: Active; Activity [31]: inactive; Activity [32]: Active
